Biological target: T1, S-COMT enzyme (Homo sapiens, UniProt P21964)
T1 sequence (P21964 1-221 isoform P21964-2): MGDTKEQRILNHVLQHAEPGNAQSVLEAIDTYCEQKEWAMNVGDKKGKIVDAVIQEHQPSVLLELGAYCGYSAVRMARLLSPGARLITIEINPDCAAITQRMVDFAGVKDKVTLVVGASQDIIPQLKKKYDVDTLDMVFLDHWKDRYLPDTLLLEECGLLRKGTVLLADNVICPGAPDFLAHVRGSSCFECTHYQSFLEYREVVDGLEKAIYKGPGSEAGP
Assay: Determination of COMT activity (IC50)
Assay type: biochemical
Conditions: S-COMT about 30 nM, 3 mM dopamine substrate, 0.05 mM AdoMet, 5 mM MgCl2, pH 7.4, 37° C., 15 min
Description: Experiment I: Determination of COMT Activity (IC50)
The determination of IC50 was performed by mesuring the COMT activity in a test sample which contained S-COMT enzyme (about 30 nM), 3 mM dopamine (as the substrate of COMT), 5 mM magnesium chloride, 0.05 mM S-adenosyl-L-methionine (AdoMet) and a test compound of the invention at various concentrations in 0.1 M phosphate buffer, pH 7.4, at 37° C.
The reaction in the test sample was initiated by adding the dopamine substrate to the sample mixture and, after incubation for 15 min at 37° C., the reaction was stopped with 4 M perchloric acid and stabilized further 10 min in ice bath. Thereafter the precipitated proteins were removed by centrifugation (4000×G for 10 min). The activity of COMT enzyme was measured by determining the concentration of the reaction products, 3-methyldopamine and 4-methyidopamine, by HPLC. The results were calibrated with 3-methyidopamine standards. See also T.Lotta et al., Biochemistry, vol.34(13), 1995, p.4204, T.Lotta et al. The IC50 value is the concentration of the test compound which causes a 50% decrease in COMT activity.

IC50	Compound
30 nM	O=c1oc2c([N+](=O)[O-])c(O)c(O)cc2cc1-c1ccccc1 [Example 6(b), 6,7-Dihydroxy-8-nitro-3-phenyl-chromen-2-one]
30 nM	O=C(c1ccccc1)c1cc2c([N+](=O)[O-])c(O)c(O)cc2oc1=O [Example 7, 3-Benzoyl-6,7-dihydroxy-5-nitro-chromen-2-one]
50 nM	O=c1oc2cc(O)c(O)c([N+](=O)[O-])c2c2c1CCCC2 [Example 8, 2,3-Dihydroxy-1-nitro-7,8,9,10-tetrahydro-benzo[c]chromen-6-one]
20 nM	O=C(O)c1cc2c([N+](=O)[O-])c(O)c(O)cc2oc1=O [Example 9(c), 6,7-Dihydroxy-5-nitro-2-oxo-2H-chromene-3-carboxylic acid]
35 nM	O=C(O)c1cc2cc(O)c(O)c([N+](=O)[O-])c2oc1=O [Example 10(d), 6,7-Dihydroxy-8-nitro-2-oxo-2H-chromene-3-carboxylic acid]
10 nM	O=C(O)Cc1cc2c([N+](=O)[O-])c(O)c(O)cc2oc1=O [Example 11(c), (6,7-Dihydroxy-5-nitro-2-oxo-2H-chromen-3-yl)-acetic acid]
10 nM	O=c1oc2cc(O)c(O)c([N+](=O)[O-])c2cc1-c1nnn[nH]1 [Example 12(b), 6,7-Dihydroxy-5-nitro-3-(1H-tetrazol-5-yl)-chromen-2-one]
60 nM	Cc1c(CC(=O)O)c(=O)oc2cc(O)c(O)c([N+](=O)[O-])c12 [Example 13(c), (6,7-Dihydroxy-4-methyl-5-nitro-2-oxo-2H-chromen-3-yl)-acetic acid]

Reference: patent publication US6951870B2, “Coumarin derivatives with COMT inhibiting activity” (Orion Corporation, priority 2000, dated 2005)
